In patent US8084457B2, “Pharmaceutically active 4,6-disubstituted aminopyrimidine derivatives as modulators of protein kinases” (Lead Discovery Center GmbH, priority 2003, dated 2011):

Legend:
[1] = target: EGFR (Homo sapiens, UniProt P00533); experiment: General kinase assay, selectivity panel: EGFR; type: biochemical; details: 10 μM of compound, in comparison to DMSO (0% inhibition)
Summary of the method: (§1)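 Radiometric filter-binding kinase assay with [γ-33P]ATP plus substrate, 1 h at room temperature, stopped with EDTA. Phosphorylated substrate captured on phosphocellulose filters and counted by scintillation. Values are % inhibition at 10 µM compound relative to DMSO (0%).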

[2] = system: protein kinases of PM1 cell lysates; experiment: Affinity chromatography with immobilised compound, PM1 cell lysate, mass spectrometry: additional targets; type: binding
Protocol: (§2) Affinity Chromatography Experiments:
(§3) Coupling to epoxy-groups: 500 μl drained epoxy-activated Sepharose 6B (Amersham Biosciences) equilibrated to 50% DMF/0.1M Na2CO3 were resuspended in 1 ml 20 mM Compound 102 or 20 mM Compound 103, respectively, dissolved in 50% DMF (Dimethylfomamid)/0.1 M Na2CO3. 5 μl 10M NaOH was added followed by incubation overnight at 30° C. with permanent shaking in the dark. After washing three times in 1 ml 50% DMF/0.1M Na2CO3 the beads were incubated in 1 ml 1M ethanolamine for 6 h at 30° C. with permanent shaking in the dark followed by the denoted washing steps: 50% DMF/0.1M Na2CO3, then H2O, then 0.1M NaHCO3 pH 8.0/0.5M NaCl followed by 0.1M NaAc pH 4.0/0.1M NaCl and finally three times in chromatography buffer (see below) containing 150 mM NaCl. As control matrix epoxy-activated Sepharose 6B was incubated with 1M ethanolamine and equally treated as described above. The beads were stored in 20% ethanol at 4° C. in the dark.
Carbodiimide coupling: ECH-Sepharose 4B (Amersham Biosciences) was washed according to the manufacturer's instructions and equilibrated to 50% DMF/50% ethanol. 2.5 ml drained beads were resuspended in 5 ml 15 mM Compound 102 or Compound 103, respectively, dissolved in 50% DMF/50% ethanol followed by drop by drop addition of 750 μl 1M 1-ethyl-3-(3-dimethylaminopropyl) carbodiimide hydrochloride (EDC), dissolved in 50% DMF/50% ethanol. The suspension was incubated overnight at room temperature with permanent end-over-end rotation and washed three times with 15 ml 50% DMF/50% ethanol prior to the addition of 5 ml 33% DMF/33% ethanol/34% 1M ethanolamine pH 8.0 and 650 μl EDC. After 2 h incubation at room temperature with permanent end-over-end rotation, beads were washed three times with 15 ml 50% DMF/50% ethanol, twice with 15 ml 0.5M NaCl and once with 15 ml 20% ethanol. Control beads were incubated with 5 ml 1M ethanolamine instead of compound and treated equally as described above. The beads were stored in 20% ethanol at 4° C. in the dark.
Affinity Chromatography and Preparative Gel Electrophoresis.
1.25×10^9 PM1 cells were lysed in 15 ml buffer containing 50 mM HEPES pH 7.5, 400 mM NaCl, 0.5% Triton X-100, 1 mM EDTA, 1 mM EGTA, 3 mM MgCl2, 1 mM DTT plus additives (10 mM sodium fluoride, 1 mM orthovanadate, 10 μg/ml aprotinin, 10 μg/ml leupeptin, 1 mM PMSF), cleared by centrifugation and adjusted to 1M NaCl. The filtered lysate was loaded with a flow rate of 100 μl/min on a […] chromatography column containing 500 μl Compound 102 or Compound 103 matrix, respectively, equilibrated to chromatography buffer (20 mM HEPES pH 7.5, 0.25% Triton X-100, 1 mM EDTA, 1 mM EGTA) containing 1M NaCl. […]

[3] = system: PDGFR; experiment: General kinase assay, selectivity panel: PDGFR; type: biochemical; details: 10 μM of compound, in comparison to DMSO (0% inhibition)
Summary of the method: as §1

[4] = target: T1, CDK5/p35 (Homo sapiens, UniProt Q00535); experiment: Kinase assay determining CDK5/p35 activity (selectivity panel); type: biochemical; details: 10 μM of compound, in comparison to DMSO (0% inhibition)
T1 construct: purchased Upsate (Upstate)
Protocol: Kinase Assays Determining CDK2/CyclinA and CDK5/p35 Activity:
Kinase assays were performed as described by the manufacturers recommendations (Proqinase for CDK2/CyclinA and Upsate for CDK5/p35).
The activity of these protein kinases is depicted as % inhibition in the presence of 10 μM of compound in comparison to DMSO (0% inhibition).

[5] = target: CDK1 (Homo sapiens, UniProt P06493); experiment: General kinase assay, selectivity panel: CDK1; type: biochemical; details: 10 μM of compound, in comparison to DMSO (0% inhibition)
Summary of the method: as §1

[6] = target: GSK-3β (Homo sapiens, UniProt P49841); experiment: General kinase assay, selectivity panel: GSK-3β; type: biochemical; details: 10 μM of compound, in comparison to DMSO (0% inhibition)
Summary of the method: as §1

[7] = target: T2, CDK9 (Homo sapiens, UniProt P50750); experiment: Affinity chromatography with immobilised compound, PM1 cell lysate, mass spectrometry: CDK9; type: binding; details: compound coupled to ECH-Sepharose
T2 construct: endogenous in cells; host or cells: PM1 cells (lysate)
Protocol: as §2, §3
Carbodiimide coupling: ECH-Sepharose 4B (Amersham Biosciences) was washed according to the manufacturer's instructions and equilibrated to 50% DMF/50% ethanol. 2.5 ml drained beads were resuspended in 5 ml 15 mM Compound 102 or Compound 103, respectively, dissolved in 50% DMF/50% ethanol followed by drop by drop addition of 750 μl 1M 1-ethyl-3-(3-dimethylaminopropyl) carbodiimide hydrochloride (EDC), dissolved in 50% DMF/50% ethanol. […]

[8] = system: NFκB-dependent transcriptional activity; experiment: NFκB-dependent transcriptional activity (NIH 3T3 75E 11/300D8 cell line); type: cell-based
Excerpt: NFκB-dependent Transcriptional Activity:
The used NIH 3T3 75E 11/300D8 cell line is described elsewhere (J. Eickhoff et al., Journal of Biological Chemistry, 2004, 279(10), 9642-9652).
It is known, that CDK9 regulates the NFκB-dependent transitional activity. With Compound 4, Compound 7 and Compound 30 studies were done, to evaluate their effect on NFκB-dependent transcriptional activity.

[9] = system: HepG2-2.2.15-cells; type: cell-based
Protocol: The fixed membrane was pre-hybridized in a standard hybridisation buffer (50% formamide, 5×SSPE, 10×Denhards, 1% SDS, 100 μg/ml salmon sperm DNA) for at least 3 hours at 42° C. and hybridised overnight against the labelled HBV-fragment. The preparation of the HBV-fragment with the “Random primers DNA labelling system” (Invitrogen) was done according to the manufacturer's instructions. Hybridized filter were washed at room temperature with 2×SSC, at 62° C. with 2×SSC, 0.5% SDS and at 62° C. with 0.5×SSC, 0.5% SDS. Each washing step was carried out twice. The intensity of the HBV-DNA was quantified using a phosphoimager (Fuji). To test the cell viability 0.5×10^4 HepG2-2.2.15-cells were seeded in 96-well-microtiter plates in DMEM medium supplemented with 10% fetal bovine serum. After incubation at 37° C. for 24 hours the medium was replaced by fresh compound-containing medium. 3 days later medium was replaced again by freshly prepared medium containing the inhibitor and the cells were incubated for further 3 days at 37° C. After the incubation period 1/10 volume of Alamar Blue (Serotec) solution containing a growth dependant indicator was added and the cells were incubated for 3 h at 37° C. Absorbance was monitored at 570 nm and 600 nm wavelength.

[10] = system: HBV; experiment: HBV replication assay in HepG2-2.2.15 cells; type: cell-based
Protocol: To test anti—HBV-activity of compounds the HBV-producing cell line HepG2-2.2.15 (M. A. Sells, PNAS 1987, 84, 1005-1009) was used. 1.0×10^4 cells were seeded in 96-well microtiter plates in DMEM medium supplemented with 10% FCS. After incubation at 37° C. in 5% CO2 atmosphere for 24 hours the medium was replaced with fresh medium containing the appropriately diluted compound. 3 days later medium was replaced by freshly prepared inhibitor-containing medium and the cells were incubated for further 3 days. Subsequently 200 μl lysis buffer (50 mM Tris-Cl 7.5; 1 mM EDTA 8.0; 0.5% NP40) per well was added. To remove cell debris and […], lysate was centrifuged (15000 rpm, 10 min, 4° C.). Cellular and viral RNA was removed by addition of 2 μl of RNase. 100 μl of the samples were spotted onto an uncharged nylon membrane pre-wetted with PBS (phosphate-buffered saline) using a 96 well-blotting chamber (MINIfold Dot-Blot, Schleicher&Schüll). After further washing with 200 μl PBS per well the membrane was treated twice with 0.5 M NaOH, 1.5 M NaCl (2 min) and 4 times with 0.5 M Tris 7.5, 3 M NaCl (1 min). The nucleic acids were fixed by UV-treatment and used for hybridisabon with a radioactive HBV-fragment prepared from the overgenome-length HBV-plasmid pT-HBV1.3 (L. G. Guidotti et al., Journal of Virology 1995., 69(10), 6158-6169).
The fixed membrane was pre-hybridized in a standard hybridisation buffer (50% formamide, 5×SSPE, 10×Denhards, 1% SDS, 100 μg/ml salmon sperm DNA) for at least 3 hours at 42° C. and hybridised overnight against the labelled HBV-fragment. The preparation of the HBV-fragment with the “Random primers DNA labelling system” (Invitrogen) was done according to the manufacturer's instructions. Hybridized filter were washed at room temperature with 2×SSC, at 62° C. with 2×SSC, 0.5% SDS and at 62° C. with 0.5×SSC, 0.5% SDS. Each washing step was carried out twice. The intensity of the HBV-DNA was quantified using a phosphoimager (Fuji). […] Absorbance was monitored at 570 nm and 600 nm wavelength.

[11] = target: Abl (Homo sapiens, UniProt P00519); experiment: General kinase assay, selectivity panel: Abl; type: biochemical; details: 10 μM of compound, in comparison to DMSO (0% inhibition)
Summary of the method: as §1

[12] = compound coupled to ECH-Sepharose, mass spectrometry

EGFR, sequence (P00533 25-1210, species assumed): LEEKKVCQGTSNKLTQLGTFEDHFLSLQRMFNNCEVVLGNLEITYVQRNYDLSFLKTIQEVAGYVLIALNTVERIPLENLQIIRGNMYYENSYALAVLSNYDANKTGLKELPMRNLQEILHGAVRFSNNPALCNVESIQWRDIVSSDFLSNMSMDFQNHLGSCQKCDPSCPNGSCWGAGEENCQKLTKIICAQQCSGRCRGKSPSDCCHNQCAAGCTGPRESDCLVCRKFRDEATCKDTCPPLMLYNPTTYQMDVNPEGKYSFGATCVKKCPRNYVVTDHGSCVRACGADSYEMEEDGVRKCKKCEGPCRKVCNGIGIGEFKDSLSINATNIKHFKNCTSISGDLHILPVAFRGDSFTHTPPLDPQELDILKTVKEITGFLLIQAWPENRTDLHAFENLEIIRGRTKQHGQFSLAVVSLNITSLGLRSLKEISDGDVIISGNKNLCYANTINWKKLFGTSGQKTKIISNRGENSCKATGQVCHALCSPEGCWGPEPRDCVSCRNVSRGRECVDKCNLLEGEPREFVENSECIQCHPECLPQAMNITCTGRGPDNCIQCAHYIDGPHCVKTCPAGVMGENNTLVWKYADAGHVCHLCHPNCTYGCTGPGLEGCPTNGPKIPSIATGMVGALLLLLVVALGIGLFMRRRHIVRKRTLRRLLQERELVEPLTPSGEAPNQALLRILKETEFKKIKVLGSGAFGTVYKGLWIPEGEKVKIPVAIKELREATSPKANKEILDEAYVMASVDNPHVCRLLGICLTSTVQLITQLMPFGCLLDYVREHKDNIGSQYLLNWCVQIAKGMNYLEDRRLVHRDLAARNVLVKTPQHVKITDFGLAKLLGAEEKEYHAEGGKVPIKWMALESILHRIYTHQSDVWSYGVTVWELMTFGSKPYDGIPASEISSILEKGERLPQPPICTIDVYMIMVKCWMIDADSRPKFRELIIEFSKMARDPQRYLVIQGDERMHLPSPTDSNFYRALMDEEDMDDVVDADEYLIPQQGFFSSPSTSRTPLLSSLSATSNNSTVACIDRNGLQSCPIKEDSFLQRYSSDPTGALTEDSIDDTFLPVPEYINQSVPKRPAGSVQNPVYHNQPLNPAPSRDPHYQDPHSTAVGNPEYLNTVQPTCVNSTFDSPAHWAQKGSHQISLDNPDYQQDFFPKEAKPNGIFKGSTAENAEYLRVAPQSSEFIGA
CDK1, sequence (P06493 whole entry, species assumed): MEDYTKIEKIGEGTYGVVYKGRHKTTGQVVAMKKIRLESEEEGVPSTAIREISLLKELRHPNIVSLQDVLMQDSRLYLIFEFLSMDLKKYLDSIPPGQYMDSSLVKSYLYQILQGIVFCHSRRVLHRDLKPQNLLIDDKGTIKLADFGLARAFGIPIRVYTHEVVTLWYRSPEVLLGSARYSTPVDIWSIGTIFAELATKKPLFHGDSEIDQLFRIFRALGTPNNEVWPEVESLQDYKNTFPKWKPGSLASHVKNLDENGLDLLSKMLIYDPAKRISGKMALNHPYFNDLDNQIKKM
CDK1, sequence (P14635 whole entry partner, species assumed): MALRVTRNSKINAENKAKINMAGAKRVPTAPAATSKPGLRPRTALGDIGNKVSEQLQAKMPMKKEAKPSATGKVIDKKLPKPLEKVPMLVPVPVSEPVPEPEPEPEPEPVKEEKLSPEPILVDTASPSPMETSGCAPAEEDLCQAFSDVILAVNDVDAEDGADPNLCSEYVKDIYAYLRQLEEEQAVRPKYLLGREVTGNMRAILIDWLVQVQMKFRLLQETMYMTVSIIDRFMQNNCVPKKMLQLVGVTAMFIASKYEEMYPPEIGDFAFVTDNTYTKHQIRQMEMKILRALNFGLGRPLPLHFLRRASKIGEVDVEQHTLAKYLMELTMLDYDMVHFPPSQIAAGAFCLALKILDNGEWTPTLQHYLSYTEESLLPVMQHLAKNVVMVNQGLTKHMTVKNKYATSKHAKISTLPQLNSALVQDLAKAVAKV
T1 sequence (Q00535 whole entry): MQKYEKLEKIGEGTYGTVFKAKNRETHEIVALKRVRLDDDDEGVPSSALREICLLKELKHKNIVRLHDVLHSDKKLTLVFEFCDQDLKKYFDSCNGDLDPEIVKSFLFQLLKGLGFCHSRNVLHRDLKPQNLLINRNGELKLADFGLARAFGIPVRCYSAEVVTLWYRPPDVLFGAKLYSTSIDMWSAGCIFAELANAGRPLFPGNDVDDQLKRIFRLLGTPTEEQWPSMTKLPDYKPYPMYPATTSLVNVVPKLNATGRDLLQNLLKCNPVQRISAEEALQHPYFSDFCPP
T1 sequence (Q15078 whole entry partner): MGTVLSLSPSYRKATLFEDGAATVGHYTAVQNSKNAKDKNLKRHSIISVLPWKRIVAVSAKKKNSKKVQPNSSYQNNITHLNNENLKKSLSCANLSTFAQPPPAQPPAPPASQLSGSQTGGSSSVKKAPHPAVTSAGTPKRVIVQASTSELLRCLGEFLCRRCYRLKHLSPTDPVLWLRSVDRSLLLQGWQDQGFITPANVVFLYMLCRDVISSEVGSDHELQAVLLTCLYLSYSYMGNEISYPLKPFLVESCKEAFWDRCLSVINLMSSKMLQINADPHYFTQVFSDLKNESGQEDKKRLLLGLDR
T2 sequence (P50750 whole entry): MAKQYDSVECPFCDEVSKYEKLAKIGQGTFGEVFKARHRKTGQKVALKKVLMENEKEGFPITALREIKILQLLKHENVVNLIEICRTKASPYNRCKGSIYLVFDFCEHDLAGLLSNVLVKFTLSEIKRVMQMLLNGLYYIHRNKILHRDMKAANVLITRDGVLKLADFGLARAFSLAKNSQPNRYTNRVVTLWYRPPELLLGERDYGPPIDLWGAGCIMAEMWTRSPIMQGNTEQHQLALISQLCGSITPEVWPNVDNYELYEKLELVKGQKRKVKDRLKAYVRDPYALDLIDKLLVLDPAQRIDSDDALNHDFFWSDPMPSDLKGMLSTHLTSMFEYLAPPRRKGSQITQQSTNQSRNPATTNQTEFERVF
Abl, sequence (P00519 whole entry, species assumed): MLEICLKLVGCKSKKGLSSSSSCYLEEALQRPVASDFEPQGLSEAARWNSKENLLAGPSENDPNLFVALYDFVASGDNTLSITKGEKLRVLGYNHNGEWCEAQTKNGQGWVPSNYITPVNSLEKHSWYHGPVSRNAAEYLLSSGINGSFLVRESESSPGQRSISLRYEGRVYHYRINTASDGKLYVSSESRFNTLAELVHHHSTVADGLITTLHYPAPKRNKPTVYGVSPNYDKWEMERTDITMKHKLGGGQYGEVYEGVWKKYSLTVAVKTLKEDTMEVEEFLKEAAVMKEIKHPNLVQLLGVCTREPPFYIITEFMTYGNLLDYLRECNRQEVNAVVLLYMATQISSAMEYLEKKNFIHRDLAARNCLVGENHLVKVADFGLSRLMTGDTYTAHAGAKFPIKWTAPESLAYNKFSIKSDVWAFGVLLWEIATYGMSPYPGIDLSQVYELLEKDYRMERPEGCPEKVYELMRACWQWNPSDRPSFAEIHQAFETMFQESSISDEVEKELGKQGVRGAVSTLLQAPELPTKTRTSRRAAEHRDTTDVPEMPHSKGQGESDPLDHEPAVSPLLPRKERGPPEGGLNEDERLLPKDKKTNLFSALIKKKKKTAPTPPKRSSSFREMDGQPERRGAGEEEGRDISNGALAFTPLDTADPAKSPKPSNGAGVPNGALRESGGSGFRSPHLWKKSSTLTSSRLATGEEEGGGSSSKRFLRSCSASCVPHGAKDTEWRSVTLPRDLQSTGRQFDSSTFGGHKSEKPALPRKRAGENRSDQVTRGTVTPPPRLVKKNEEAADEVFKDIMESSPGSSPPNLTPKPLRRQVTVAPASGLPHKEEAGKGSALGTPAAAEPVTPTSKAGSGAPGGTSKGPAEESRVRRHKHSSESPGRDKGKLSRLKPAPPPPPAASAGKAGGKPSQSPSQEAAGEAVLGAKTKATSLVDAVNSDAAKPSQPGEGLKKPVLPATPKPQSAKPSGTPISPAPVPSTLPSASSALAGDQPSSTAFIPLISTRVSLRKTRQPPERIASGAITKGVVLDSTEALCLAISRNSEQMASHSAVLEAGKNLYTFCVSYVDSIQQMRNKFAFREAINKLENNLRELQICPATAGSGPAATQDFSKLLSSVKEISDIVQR
GSK-3β, sequence (P49841 whole entry, species assumed): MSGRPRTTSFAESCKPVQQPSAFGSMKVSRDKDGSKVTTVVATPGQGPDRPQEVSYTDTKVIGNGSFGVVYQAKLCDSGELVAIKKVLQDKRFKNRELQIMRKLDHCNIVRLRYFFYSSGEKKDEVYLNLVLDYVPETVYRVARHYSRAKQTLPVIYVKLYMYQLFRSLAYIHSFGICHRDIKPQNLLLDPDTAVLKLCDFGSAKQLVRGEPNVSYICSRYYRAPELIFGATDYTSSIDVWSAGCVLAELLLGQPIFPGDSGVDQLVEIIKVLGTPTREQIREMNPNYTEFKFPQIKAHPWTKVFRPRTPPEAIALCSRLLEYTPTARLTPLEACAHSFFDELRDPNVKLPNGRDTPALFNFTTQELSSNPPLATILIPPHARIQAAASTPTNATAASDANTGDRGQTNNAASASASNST

Row | SMILES | inhibition at 10 µM [1] | protein kinases in eluates: CaMK2β, GSK3α, CDK2, CrkRS, receptor similar to FGFR-3 ([2]; LCMS analysis of eluates) | additional targets bound: GSK3β, c-Src tyrosine kinase (CSK) [2, 12] | PDGFR (% inhibition) [3] | inhibition at 10 µM [4] | inhibition at 10 µM [5] | inhibition at 10 µM [6] | isolation of CDK9 out of crude PM1 cell lysates by affinity medium [7] | inhibition of NFκB (in words, compared with Compound 30) [8] | viability of the cells in the HBV replication assay [9] | HBV replication (in words) [10] | protein kinases in eluates: CaMK2β, MLK (MRK-alpha), yes, cdc2-like protein kinase (CDC2L5), CrkRS, MAK ([2]; LCMS analysis of eluates) | additional targets bound: CaMK2γ, CaMK2δ, CDK2, MRK-beta (ZAK) [2, 12] | inhibition at 10 µM [11]
1 | NCCCOc1ccccc1-c1cc(Nc2ccc(NC(=O)c3ccc(N)cc3)cc2)ncn1 [Compound 103, 4-Amino-N-(4-{6-[2-(3-amino-propoxy)phenyl]-pyrimidin-4-ylamino}-phenyl)-benzamide] | > 80% | detected | specifically bound | c (inhibition between 50 and 30%: c) | 50 to 80% | 50 to 80% | 50 to 80% | able to isolate CDK9 | – | – | – | – | – | –
2 | c1ccc(COc2ccccc2-c2cc(NCCc3ccncc3)ncn2)cc1 [Compound 7] | – | – | – | – | – | – | – | – | less effectively | without affecting viability | inhibited replication | – | – | –
3 | COc1ccccc1-c1cc(Nc2ccc(NC(=O)CCN)cc2)ncn1 [Compound 102, 3-Amino-N-{4-[6-(2-methoxy-phenyl)-pyrimidin-4-ylamino]-phenyl}-propionamide] | > 80% | – | – | b (inhibition between 80 and 50%: b) | > 80% | 50 to 80% | – | able to isolate CDK9 | – | – | – | identified | specifically bound | 30 to 50%
